ChEMBL document CHEMBL1255301, “Activity of Tigecycline against Coryneform Bacteria of Clinical Interest and Listeria monocytogenes” (2008)
Converted amounts (≈) assume the structure as drawn.

Legend:
Assay type in all cases: functional
[1] = system: Corynebacterium jeikeium; test: Antimicrobial activity against Corynebacterium jeikeium isolates by CLSI M45-A protocol based microdilution method
[2] = system: Corynebacterium urealyticum; test: Antimicrobial activity against Corynebacterium urealyticum isolates by CLSI M45-A protocol based microdilution method
[3] = system: Arcanobacterium haemolyticum; test: Antimicrobial activity against Arcanobacterium haemolyticum isolates by CLSI M45-A protocol based microdilution method
[4] = system: Corynebacterium amycolatum; test: Antimicrobial activity against Corynebacterium amycolatum isolates by CLSI M45-A protocol based microdilution method
[5] = system: Corynebacterium pseudodiphtheriticum; test: Antimicrobial activity against Corynebacterium pseudodiphtheriticum isolates by CLSI M45-A protocol based microdilution method
[6] = system: Corynebacterium minutissimum; test: Antimicrobial activity against Corynebacterium minutissimum isolates by CLSI M45-A protocol based microdilution method
[7] = system: Prescottella equi; test: Antimicrobial activity against Rhodococcus equi isolates by CLSI M45-A protocol based microdilution method; conditions: Rhodococcus (subgen. Prescottella) equi
[8] = system: Listeria monocytogenes; test: Antimicrobial activity against Listeria monocytogenes isolates by CLSI M45-A protocol based microdilution method
[9] = system: Corynebacterium xerosis; test: Antimicrobial activity against Corynebacterium xerosis isolates by CLSI M45-A protocol based microdilution method
[10] = system: Corynebacterium striatum; test: Antimicrobial activity against Corynebacterium striatum isolates by CLSI M45-A protocol based microdilution method

Structure (SMILES) | MIC50 [1] [µg/mL] | MIC90 [1] [µg/mL] | MIC50 [2] [µg/mL] | MIC90 [2] [µg/mL] | MIC50 [4] [µg/mL] | MIC90 [4] [µg/mL] | MIC50 [5] [µg/mL] | MIC90 [5] [µg/mL] | MIC50 [6] [µg/mL] | MIC50 [7] [µg/mL] | MIC90 [7] [µg/mL] | MIC50 [8] [µg/mL] | MIC90 [8] [µg/mL] | MIC50 [9] [µg/mL] | MIC50 [10] [µg/mL] | MIC90 [10] [µg/mL] | MIC50 [3] [µg/mL] | MIC90 [3] [µg/mL] | MIC [1] [µg/mL] | MIC [3] [µg/mL]
C[C@H]1COc2c(N3CCN(C)CC3)c(F)cc3c(=O)c(C(=O)O)cn1c23.C[C@H]1COc2c(N3CCN(C)CC3)c(F)cc3c(=O)c(C(=O)O)cn1c23.O [LEVOFLOXACIN] | 4 | > 32 | > 32 | > 32 | > 32 | > 32 | 0.25 | 4 | 0.06 | 1 | 2 | 0.5 | 1 | 32 | > 32 | > 32 | 0.5 | 0.5 | – | –
CN[C@H](CC(C)C)C(=O)N[C@H]1C(=O)N[C@@H](CC(N)=O)C(=O)N[C@H]2C(=O)N[C@H]3C(=O)N[C@H](C(=O)N[C@H](C(=O)O)c4cc(O)cc(O)c4-c4cc3ccc4O)[C@H](O)c3ccc(c(Cl)c3)Oc3cc2cc(c3O[C@@H]2O[C@H](CO)[C@@H](O)[C@H](O)[C@H]2O[C@H]2C[C@](C)(N)[C@H](O)[C@H](C)O2)Oc2ccc(cc2Cl)[C@H]1O [VANCOMYCIN] | 0.06 (≈ 0.0414 µM) | 0.25 (≈ 0.173 µM) | 0.25 (≈ 0.173 µM) | 0.5 (≈ 0.345 µM) | 0.25 (≈ 0.173 µM) | 0.5 (≈ 0.345 µM) | 0.25 (≈ 0.173 µM) | 0.25 (≈ 0.173 µM) | 0.25 (≈ 0.173 µM) | 0.5 (≈ 0.345 µM) | 0.5 (≈ 0.345 µM) | 0.5 (≈ 0.345 µM) | 1 (≈ 0.69 µM) | 0.25 (≈ 0.173 µM) | 0.25 (≈ 0.173 µM) | 0.5 (≈ 0.345 µM) | 0.25 (≈ 0.173 µM) | 0.5 (≈ 0.345 µM) | 0.06 (≈ 0.0414 µM) | –
CCC[C@@H]1C[C@@H](C(=O)N[C@@H]([C@H]2O[C@H](SC)[C@H](O)[C@@H](O)[C@H]2O)[C@H](C)Cl)N(C)C1 [CLINDAMYCIN] | > 16 | > 16 | > 16 | > 16 | > 16 | > 16 | > 16 | > 16 | > 16 | 2 (≈ 4.71 µM) | 8 (≈ 18.8 µM) | 1 (≈ 2.35 µM) | 2 (≈ 4.71 µM) | > 16 | > 16 | > 16 | ≤ 0.015 | ≤ 0.015 | > 16 | ≤ 0.015

Further lines, with some results ahead:

MIC50 [1] [µg/mL] | MIC90 [1] [µg/mL] | MIC50 [2] [µg/mL] | MIC90 [2] [µg/mL] | MIC50 [4] [µg/mL] | MIC90 [4] [µg/mL] | MIC50 [5] [µg/mL] | MIC90 [5] [µg/mL] | MIC50 [6] [µg/mL] | MIC50 [7] [µg/mL] | MIC90 [7] [µg/mL] | MIC50 [8] [µg/mL] | MIC90 [8] [µg/mL] | MIC50 [9] [µg/mL] | MIC50 [10] [µg/mL] | MIC90 [10] [µg/mL] | Structure (SMILES) | MIC50 [3] [µg/mL] | MIC90 [3] [µg/mL] | MIC [1] [µg/mL] | MIC [3] [µg/mL]
> 32 | > 32 | > 32 | > 32 | 0.5 (≈ 1.18 µM) | 2 (≈ 4.71 µM) | 0.06 (≈ 0.141 µM) | 0.125 (≈ 0.295 µM) | 0.5 (≈ 1.18 µM) | 8 (≈ 18.9 µM) | 16 (≈ 37.7 µM) | > 32 | > 32 | 2 (≈ 4.71 µM) | 1 (≈ 2.36 µM) | 2 (≈ 4.71 µM) | CO/N=C(\C(=O)N[C@@H]1C(=O)N2C(C(=O)O)=C(COC(N)=O)CS[C@H]12)c1ccco1 [CEFUROXIME] | 0.125 (≈ 0.295 µM) | 0.25 (≈ 0.589 µM) | – | –
0.03 | 1 | 0.125 | 4 | 0.06 | 0.5 | 0.125 | 0.125 | 0.25 | 1 | 1 | 0.125 | 0.125 | 0.5 | 8 | > 16 | C[C@H]1c2cccc(O)c2C(=O)C2=C(O)[C@]3(O)C(=O)C(C(N)=O)=C(O)[C@@H](N(C)C)[C@@H]3[C@@H](O)[C@@H]21.O [DOXYCYCLINE] | 0.125 | 8 | – | –
